In patent publication US20260315499A1, “2'- {HETEROCYCLYL (ARYL/ALKYL) METHYL} - CANNABIDIOL COMPOUNDS AND PROCESS FOR PREPARATION THEREOF” (COUNCIL OF SCIENTIFIC & INDUSTRIAL RESEARCH, priority 2023, published 2026):

How the values were obtained:
[1] = tested on: differentiated human neuroblastoma cell line SHSY5Y; assay: In vitro neuroprotection against corticosterone, differentiated SHSY5Y, 48 hrs; assay type: cell-based
Experimental: (§1) Human neuroblastoma cells (SHSY5Y) and mouse neuroblastoma cells (N2A) were procured from American Type Culture Collection (ATCC). SHSY5Y cell cultures were maintained in DMEM F12 (Invitrogen) whereas N2A were cultured in DMEM (Invitrogen) with 10% Fetal Bovine Serum (Gibco) medium, subjected to differentiation to acquire neuronal morphology (employing differentiation media DMEM-F12, 3-5% FBS, (For differentiation, low concentration of FBS was used) and 50 μM retinoic acid). Differentiated cells were later seeded into 96 well plates, at a density of 1×10^4 before being incubated for 48 hrs with the synthesized library. The exhausted culture media was substituted with new culture media containing 0.5 mg/ml MTT dye. Eventually, the OD at 490 nm excitation was measured using a 96-well plate reader. The proportion of viable cells was determined as percentage of absorbance of untreated cultures relative to control.
(§2) In the next attempt, the neuroprotective properties of the generated library (20 μM, 48 hrs) were assessed employing differentiated human neuroblastoma cell line SHSY5Y and mouse neuroblastoma cell line N2A (Biomol Ther., 2022, 30(6), 570-575). The cells were assaulted with the neurotoxic corticosterone (Cort, 400 μM) for 24 hrs after the overnight preincubation of cells with test molecules as a selection criterion. […]

[2] = tested on: mouse neuroblastoma cell line N2A; assay: In vitro neuroprotection against corticosterone, differentiated N2A, 48 hrs; assay type: cell-based; conditions: test compound 20 μM + Cort. 400 μM, read-out: % Cell viability ± SD, N2A
Experimental: as §1, §2

Anti BDNF [3] = assay: Survival pathway protein expression by western blotting in SHSY5Y; assay type: cell-based, human
Experimental: (§3) Here, A1 was tested to find its role in eliciting survival pathway proteins in differentiated human neuroblastoma cells in concentration and time dependent manner.
(§4) To investigate the effect of A1 on the survival proteins, SHSY5Y cell cultures were treated with different concentrations for 6 hrs and analyzed for the expression of survival proteins, including p-Erk 44/42, p-AKT 473, Anti BDNF, and p TrkB 816 and p TrKB 515 by western blotting.

p TrkB 515 [4] = assay: as above; assay type: cell-based, human
Experimental: as §3, §4

p TrkB 816 [5] = assay: as above; assay type: cell-based, human
Experimental: as §3, §4

p-Erk 44/42 = assay: as above; assay type: cell-based, human; conditions: for Relative Protein Expression p ERK 44/42: 6 hrs
Experimental: as §3, §4

p-AKT 473 = assay: as above; assay type: cell-based, human
Experimental: as §3
To investigate the effect of A1 on the survival proteins, […] of survival proteins, including p-Erk 44/42, p-AKT 473, Anti BDNF, and p TrkB 816 and p TrKB 515 by western blotting.

depression mice model = assay: In vivo corticosterone induced depression model: sucrose preference test; set-up: species or system mouse (male C57); conditions: for % Sucrose consumption (ml) ± SD: 2% sucrose, 21 days
Experimental: In vivo efficacy (ameliorates behavioral despair) of A1 in corticosterone induced model of stress (J. Neurochem., 2018 146, 722 734). […] A1 (20 mg/kg, oral) dissolved in normal saline was given for 3 consecutive weeks following corticosteroid stress. The sucrose preference test was employed, tail suspension test, and forced swim test to evaluate behavioral distress. We noticed that A1 can resurrect mice in stressful situations. […]
Sucrose consumption was employed to evaluate anhedonia, a core hallmark of depression in mice. The animals were allowed unfettered access to both identical bottles, one containing water while the other contained a 2% solution of sucrose, for 21 days.
The below equation was later employed to determine water and sugar consumed by mice:
Sucrose Preference=Sucrose consumed[…]/Total fluid intake.

Anti BDNF [6] = assay: Survival pathway protein expression by western blotting in SHSY5Y; assay type: cell-based, human; conditions: for Relative Protein Expression Anti BDNF: A1 + Cort.
p TrkB 816 [7] = assay: as above; assay type: cell-based, human; conditions: for Relative Protein Expression p TrkB 816: A1 + Cort.
p TrkB 515 [8] = assay: as above; assay type: cell-based, human; remark: listed apart in the source
[9] = different concentrations of A1, 6 hrs
[10] = A1 for multiple time spans, corticosterone

C=C(C)[C@@H]1CCC(C)=C[C@H]1c1c(O)cc(CCCCC)c(CN2CCOCC2)c1O [A1, 2′-(morpholin-1-ylmethyl)-cannabidiol]
cell viability (in words) ([1]; 20 μM + Cort. 400 μM, compared with corticosterone treated group, SHSY5Y and N2A): the highest number of viable cells were observed in A1 treated line | viability at 20 µM ([1]; Homo sapiens, SH-SY5Y, test compound 20 μM + Cort. 400 μM, 48 hrs, read-out: % Cell viability ± SD, SHSY5Y): 97.9 ± 1.31% | viability at 20 µM [2]: 97.6 ± 1.97% | Relative Protein Expression Anti BDNF (Anti BDNF [3]; A1 5 μM, 6 hrs): 0.67 | Relative Protein Expression Anti BDNF (Anti BDNF [3]; A1 10 μM, 6 hrs): 1.48 | Relative Protein Expression Anti BDNF (Anti BDNF [3]; A1 + Cort., 6 hr): 39.43 | Relative Protein Expression Anti BDNF (Anti BDNF [3]; A1/Cort., A1 5 μM, 6 hrs): 0.44 | Relative Protein Expression Anti BDNF (Anti BDNF [3]; A1/Cort., A1 10 μM, 6 hrs): 1.34 | expression of Anti BDNF (in words) (Anti BDNF [3]; [9]): increased significantly | Relative Protein Expression p TrkB 515 (p TrkB 515 [4]; A1 10 μM, 6 hrs): 1.75 | Relative Protein Expression p TrkB 515 (p TrkB 515 [4]; A1 + Cort., 6 hr): 6.675 | Relative Protein Expression p TrkB 515 (p TrkB 515 [4]; A1/Cort., A1 5 μM, 6 hrs): 0.07 | Relative Protein Expression p TrkB 515 (p TrkB 515 [4]; A1/Cort., A1 10 μM, 6 hrs): 1.30 | expression of p TrkB 515 (in words) (p TrkB 515 [4]; [9]): increased significantly except for the expression of p-AKT 473 and p TrkB 515 | Relative Protein Expression p TrkB 816 (p TrkB 816 [5]; A1 5 μM, 6 hrs): 3.11 | Relative Protein Expression p TrkB 816 (p TrkB 816 [5]; A1 10 μM, 6 hrs): 2.91 | Relative Protein Expression p TrkB 816 (p TrkB 816 [5]; A1 + Cort., 6 hr): 23.0422 | Relative Protein Expression p TrkB 816 (p TrkB 816 [5]; A1/Cort., A1 5 μM, 6 hrs): 1.41 | Relative Protein Expression p TrkB 816 (p TrkB 816 [5]; A1/Cort., A1 10 μM, 6 hrs): 2.89 | expression of p TrkB 816 (in words) (p TrkB 816 [5]; [9]): increased significantly | Relative Protein Expression p ERK 44/42 (p-Erk 44/42; A1 5 μM): 4.51 | Relative Protein Expression p ERK 44/42 (p-Erk 44/42; A1 10 μM): 8.80 | Relative Protein Expression p ERK 44/42 (p-Erk 44/42; A1/Cort., A1 5 μM): 3.70 | Relative Protein Expression p ERK 44/42 (p-Erk 44/42; A1/Cort., A1 10 μM): 5.05 | expression of p-Erk 44/42 (in words) (p-Erk 44/42; [9]): increased significantly | Relative Protein Expression PAKT 473 (p-AKT 473; A1 5 μM, 6 hrs): 0.67 | Relative Protein Expression PAKT 473 (p-AKT 473; A1 10 μM, 6 hrs): 1.60 | Relative Protein Expression PAKT 473 (p-AKT 473; A1 + Cort., 0 hr): 1.00 | Relative Protein Expression PAKT 473 (p-AKT 473; A1 + Cort., 0.5 hr): 11.68 | Relative Protein Expression PAKT 473 (p-AKT 473; A1 + Cort., 1 hr): 14.78 | Relative Protein Expression PAKT 473 (p-AKT 473; A1 + Cort., 2 hr): 17.15 | Relative Protein Expression PAKT 473 (p-AKT 473; A1 + Cort., 4 hr): 26.33 | Relative Protein Expression PAKT 473 (p-AKT 473; A1 + Cort., 6 hr): 31.80 | Relative Protein Expression PAKT 473 (p-AKT 473; A1/Cort., A1 5 μM, 6 hrs): 0.60 | Relative Protein Expression PAKT 473 (p-AKT 473; A1/Cort., A1 10 μM, 6 hrs): 1.35 | expression of p-AKT 473 (in words) (p-AKT 473; [10]): remarkably increased | increase of sucrose consumption (depression mice model; compared with stressed mice): more than 50% | % Sucrose consumption (ml) ± SD (depression mice model; with Cort.): 78.02±0.99% | % Sucrose consumption (ml) ± SD (depression mice model; without Cort.): 83.80±0.80% | Relative Protein Expression Anti BDNF (Anti BDNF [6]; 0 hr): 1.029 | Relative Protein Expression Anti BDNF (Anti BDNF [6]; 0.5 hr): 14.02 | Relative Protein Expression Anti BDNF (Anti BDNF [6]; 1 hr): 28.11 | Relative Protein Expression Anti BDNF (Anti BDNF [6]; 2 hr): 51.76 | Relative Protein Expression Anti BDNF (Anti BDNF [6]; 4 hr): 41.62 | expression of Anti BDNF (in words) (Anti BDNF [6]; [10]): remarkably increased | Relative Protein Expression p TrkB 816 (p TrkB 816 [7]; 0 hr): 1.012 | Relative Protein Expression p TrkB 816 (p TrkB 816 [7]; 0.5 hr): 1.309 | Relative Protein Expression p TrkB 816 (p TrkB 816 [7]; 1 hr): 10.54 | Relative Protein Expression p TrkB 816 (p TrkB 816 [7]; 2 hr): 16.76 | Relative Protein Expression p TrkB 816 (p TrkB 816 [7]; 4 hr): 23.54 | expression of p TrkB 816 (in words) (p TrkB 816 [7]; [10]): remarkably increased | Relative Protein Expression p TrkB 515 (p TrkB 515 [8]; A1 5 μM, 6 hrs): 0.23 | Relative Protein Expression p TrkB 515 (p TrkB 515 [8]; A1 + Cort., 0 hr): 1.019 | Relative Protein Expression p TrkB 515 (p TrkB 515 [8]; A1 + Cort., 0.5 hr): 2.277 | Relative Protein Expression p TrkB 515 (p TrkB 515 [8]; A1 + Cort., 1 hr): 6.57 | Relative Protein Expression p TrkB 515 (p TrkB 515 [8]; A1 + Cort., 2 hr): 8.707 | Relative Protein Expression p TrkB 515 (p TrkB 515 [8]; A1 + Cort., 4 hr): 8.145 | expression of p TrkB 515 (in words) (p TrkB 515 [8]; [10]): remarkably increased
